Measurements reported in patent US12048711B2, “Composition and use thereof in the manufacture of medicament for treating cancer” (priority 2020, dated 2024).

What was measured:
[1] = system: liver cancer cell line HepG2; colorectal cancer cell line LoVo, HT29, SW620, SW480; test: MTT cell growth inhibition, Apatinib alone and with Sotagliflozin; format: cell-based; details: Apatinib alone 5-30 μM, 48 hours, FIG. 4-a-1 to 4-a-5
Text: After obtaining the effectiveness of […] in Example 1, the present disclosure further validated another VEGFR-targeting TKI drug, Apatinib. According to the tissue distribution characteristics of VEGFR and SGLT1/2, the targets of Apatinib and Sotagliflozin, the followings cells were selected for experimental verification: liver cancer cell line HepG2; colorectal cancer cell line LoVo, HT29, SW620, SW480; cervical cancer HeLa; ovarian cancer SKOV3; gastric cancer NGC27; cholangiocarcinoma RBE; esophageal cancer KYSE3. After growing to 80% density, the cells were trypsinized, passaged and plated in a 96-well plate with 5000 cells per well. After 24 hours, the medium was replaced with a medium containing the corresponding concentration of Apatinib, Sotagliflozin, or the combination of Apatinib and Sotagliflozin. After 48 hours, the absorbance at each concentration was detected by the MTT method. The experiment included the following groups: Control group: cells were cultured in normal culture medium without drug added. […] The cell growth inhibition rate is calculated by dividing the absorbance value at each concentration by the absorbance value of the control group. […] In the figure, the concentration of Apatinib is taken as the abscissa and the cell growth inhibition rate is taken as the ordinate.

[2] = system: Liver cancer cell line HepG2; test: IC50 determination of Apatinib+Sotagliflozin combination on HepG2; format: cell-based; details: Homo sapiens, single agent, cell survival rate after 2 h incubation, read-out: IC50 value on HepG2 cells
Text: After obtaining the effectiveness of […] in Example 1, the present disclosure further validated another VEGFR-targeting TKI drug, Apatinib. According to the tissue distribution characteristics of VEGFR and SGLT1/2, the targets of Apatinib and Sotagliflozin, the followings cells were selected for experimental verification: liver cancer cell line HepG2; colorectal cancer cell line LoVo, HT29, SW620, SW480; cervical cancer HeLa; ovarian cancer SKOV3; gastric cancer NGC27; cholangiocarcinoma RBE; esophageal cancer KYSE3. After growing to 80% density, the cells were trypsinized, passaged and plated in a 96-well plate with 5000 cells per well. […] After 48 hours, the absorbance at each concentration was detected by the MTT method. […]
Apatinib test group (FIG. 4-b-1): cells were treated by adding Apatinib alone at 6 different concentrations, 0 μM, 5 μM, 10 μM, 20 μM, 30 μM and 40 μM, respectively, to the culture medium, and cell survival rate was measured after 2 h incubation.
Sotagliflozin test group (FIG. 4-b-2): cells were treated by adding Sotagliflozin alone at 7 different concentrations, 0 μM, 20 μM, 30 μM, 40 μM, 60 μM, 80 μM and 100 μM respectively, to the culture medium, and cell survival rate was measured after 2 h incubation. […]

[3] = system: lung cancer A549 cells; test: A549 xenograft tumor treatment trial in nude mice; format: in vivo, Balbc nude mice; details: for Average tumor volume: in mm³ (unit assumed)
Experimental: After growing to the logarithmic phase, A549 cells were collected and resuspended in serum-free DMEM medium to 5×10^7 cells per ml. Each mouse was inoculated with 100 μl of 5×10^6 cells, and the tumor size was measured 19 days later. Mice were grouped according to the tumor size, and the average tumor size in each group was the same. Mice were administered after grouping. […] The dosage of Gefitinib was 100 mg per kilogram according to the reported dose for the treatment of A549 xenografts in previous studies. The two drugs were administered by gavage, consistent with the current oral mode in clinical use. The dosing cycle was once every two days. The tumor size was measured every two days. After 40 days of administration, the test was ended, and the tumor was removed and weighed.

[4] = system: lung cancer A549 cells; test: Trypan blue staining of A549 cells treated with Gefitinib in sugar-free and sugar-containing medium; format: cell-based; details: 20 μM Gefitinib, 48 hours
Experimental: […]. A549 cells were grown to 80% density, passed, resuspended in a normal medium (25 mM glucose) to a concentration of 4×10^5 cells per ml, and plated in a 24-well plate with 1 ml per well. After 24 hours, the medium was changed to sugar-free medium (0 mM glucose) and normal medium, respectively, and added with Gefitinib for treating the cell. After 48 hours, the medium was discarded, and 1 ml of 1×PBS was added to wash once, and 1 ml of 1×Trypan Blue was added to each well for staining for 10 minutes. Then, the trypan blue staining solution was aspirated, and the plate was washed three times by adding 1 ml of 1×PBS, and photographed under a light microscope. […] […]. […] According to the background section, cancer cells mainly rely on the SGLT family of proteins to absorb sugar. Therefore, the present disclosure relates use of a composition comprising dual inhibitor Sotagliflozin of SGLT1 and SGLT2, the two most important members of the SGLT family highly expressed in cancer cells, and a tyrosine kinase inhibitor in the manufacture of a medicament for treating cancer.
. Based on the previous findings illustrated in FIG. 1, Sotagliflozin was purchased from Selleck Chemicals for growth inhibition test of cancer cell in vitro. […] Therefore, the concentration of Sotagliflozin used in the subsequent compositions of this experiment were lower than 80 μM to avoid affecting normal cells.

[5] = system: liver cancer HepG2 cells, colorectal cancer LoVo, HT29, DLD1, SW480, and HCT116 cells; test: Growth inhibition by Lenvatinib alone and with Sotagliflozin in a variety of cell lines; format: cell-based; details: addition of Sotagliflozin at a safe dose; FIG. 5
Text: Therefore, the effect of the combination in the safe concentration range of Sotagliflozin is better than the effect of each single agent. It is worth mentioning that the ability of Sotagliflozin in the combination to enhance the efficacy of VEGFR-targeting TKI drugs is not limited to a single drug of Apatinib.

[6] = system: Lung cancer cell line A549; test: IC50 determination of EGFR inhibitor + Sotagliflozin combination on A549; format: cell-based; details: Homo sapiens, single agent, cell survival rate after 1 h incubation, read-out: IC50 value on A549 cells
Experimental: After growing to 80% density, the cells were trypsinized, passaged and plated in a 96-well plate with 5000 cells per well. After 24 hours, the medium was replaced with a medium containing the corresponding concentration of drug. After 48 hours, the absorbance at each concentration was detected by the MTT method.

[7] = system: normal human umbilical cord epithelial cells; test: Determination of the safe concentration of Sotagliflozin on normal cells; format: cell-based
Experimental: The killing effect of Gefitinib on lung cancer A549 cells cultured in sugar-free medium and sugar-containing medium 48 hours after treating A549 cells with 20 μM Gefitinib, trypan blue staining was used to distinguish live cells from dead cells which were stained blue by trypan blue. Based on the previous findings illustrated in FIG. 1, Sotagliflozin was purchased from Selleck Chemicals for growth inhibition test of cancer cell in vitro. […] Therefore, the concentration of Sotagliflozin used in the subsequent compositions of this experiment were lower than 80 μM to avoid affecting normal cells.

[8] = A549 tumor-bearing mice, gavage once every two days, 40 days, Sotagliflozin 30 mg/kg, Gefitinib 100 mg/kg

For `N#CC1(c2ccc(NC(=O)c3cccnc3NCc3ccncc3)cc2)CCCC1` [Apatinib], the “inhibitory effect on tumor cells (cell growth inhibition rate)” value [1] was “limited” and the IC50 [2] was 46 µM.
In the case of `COc1cc2ncnc(Nc3ccc(F)c(Cl)c3)c2cc1OCCCN1CCOCC1` [Gefitinib], the “Tumor volume ratio of each group to the control group” value ([3]; mouse, in vivo) is reported as 0.4881, the effectiveness evaluation ([3]; mouse, in vivo) is reported as “ineffective” and the Average tumor volume ([3]; mouse, in vivo) is reported as 504.8. The “trypan blue staining (dead cells stained blue)” value ([4]; normal medium (25 mM glucose)) was “almost no blue coloration” and the “trypan blue staining (dead cells stained blue)” value ([4]; sugar-free medium (0 mM glucose)) was “almost all colored blue, indicating dead cells”.
In the case of `COc1cc2nccc(Oc3ccc(NC(=O)NC4CC4)c(Cl)c3)c2cc1C(N)=O` [Lenvatinib], the “effect of adding Sotagliflozin on inhibitory effect of Lenvatinib” value [5] is reported as “enhanced the inhibitory effect”.
In the case of `CCOc1ccc(Cc2cc([C@@H]3O[C@H](SC)[C@@H](O)[C@H](O)[C@H]3O)ccc2Cl)cc1` [Sotagliflozin], the “inhibition of tumor growth (in words)” value ([3]; A549 tumor-bearing mice, FIG. 7-a to 7-c) is reported as “can inhibit tumor growth”, the “Tumor growth inhibition rate” value [3, 8] is reported as 58.4% and the “Tumor volume ratio of each group to the control group” value [3, 8] is reported as 0.416. For the same compound, the Average tumor volume [3, 8] was 430.3, the effectiveness evaluation ([3]; effective if tumor growth inhibition rate greater than 60% and p value less than 0.05) was “ineffective” and the IC50 [6] was 73 µM. The IC50 [2] was 116 µM, the “concentration mainly exhibiting cell growth inhibition effect” value [7] was “lower than 80 μM” and the “concentration producing great cytotoxicity” value [7] was “higher than 80 μM”.
